Assay results taken from PMC6010526, “In Silico Approaches Applied to the Study of Peptide Analogs of Ile-Pro-Ile in Relation to Their Dipeptidyl Peptidase IV Inhibitory Properties” (Frontiers in Endocrinology, 2018).
Read-outs that look alike come from different tables or passages of the source. Residues, ends and D or L forms follow the SMILES beside them.

Experiments:
porcine DPP-IV [1] = molecular target: T1, porcine DPP-IV (Sus scrofa, UniProt P22411); assay: DPP-IV inhibition assay with Gly-Pro-pNA substrate; assay type: biochemical; set-up: purchased Sigma Aldrich (Dublin, Ireland); details: for IC50: porcine DPP-IV, Gly-Pro-pNA 0.200 mM, 37°C, n = 3, read-out: Experimental DPP-IV IC50
T1 sequence (P22411 whole entry): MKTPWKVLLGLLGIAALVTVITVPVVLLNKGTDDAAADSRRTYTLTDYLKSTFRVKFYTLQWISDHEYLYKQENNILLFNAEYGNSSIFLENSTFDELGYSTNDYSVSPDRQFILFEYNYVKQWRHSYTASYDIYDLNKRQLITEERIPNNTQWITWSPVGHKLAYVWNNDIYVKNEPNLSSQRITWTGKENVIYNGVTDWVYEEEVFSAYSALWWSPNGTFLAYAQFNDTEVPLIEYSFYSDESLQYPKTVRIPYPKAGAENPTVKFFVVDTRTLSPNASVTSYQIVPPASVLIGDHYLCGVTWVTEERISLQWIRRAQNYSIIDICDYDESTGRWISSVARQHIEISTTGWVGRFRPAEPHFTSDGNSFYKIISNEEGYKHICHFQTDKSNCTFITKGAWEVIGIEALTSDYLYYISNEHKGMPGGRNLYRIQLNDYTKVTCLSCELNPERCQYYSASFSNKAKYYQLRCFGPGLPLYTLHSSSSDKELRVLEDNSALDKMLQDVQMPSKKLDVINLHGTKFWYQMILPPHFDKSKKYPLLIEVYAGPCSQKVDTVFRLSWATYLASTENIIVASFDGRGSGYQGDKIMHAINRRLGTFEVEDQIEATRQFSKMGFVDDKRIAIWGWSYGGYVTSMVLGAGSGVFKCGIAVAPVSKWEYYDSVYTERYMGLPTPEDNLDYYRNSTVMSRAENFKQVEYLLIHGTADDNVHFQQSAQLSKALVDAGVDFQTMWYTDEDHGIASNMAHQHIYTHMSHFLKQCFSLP
Description: Peptides were dispersed in HPLC grade water at 50 and 500 µM (final concentration). The DPP-IV inhibition assay was carried out in triplicate as outlined by Nongonierma and FitzGerald ([18]). Briefly, samples (25 μL) were mixed with Gly-Pro-pNA (final concentration 0.200 mM) and DPP-IV (final concentration 0.0025 U mL^−1) in a 96-well microplate (Sarstedt, Dublin, Ireland). The microplate was incubated at 37°C for 60 min in a microplate reader (Biotek Synergy HT, Winooski, VT, USA) and absorbance was monitored at 405 nm.
Dose–response curves were determined for peptides displaying a percentage of inhibition > 50% at 500 µM. Peptides were diluted in HPLC water at concentrations ranging from 0.37 to 500 µM (final concentration). The DPP-IV IC50 values were determined by plotting the percentage inhibition as a function of the test compound concentration. Each analysis was carried out in triplicate (n = 3).

porcine DPP-IV [2] = molecular target: T1, porcine DPP-IV; assay: Stability of peptides to hydrolysis by DPP-IV (LC-MS/MS); details: for Hydrolysis by DPP-IV (stability), in words: 30 min incubation with DPP-IV; for Peptide hydrolyzed by DPP-IV: peptide at 1/4 of IC50, 30 min at 37°C, Tris-HCl buffer pH 8.0
Description: Stability of the peptides to hydrolysis by DPP-IV was evaluated by liquid chromatography tandem mass spectrometry (LC-MS/MS) using the samples generated during the Lineweaver and Burk analysis containing DPP-IV inhibitory peptides at their IC50 values divided by 4 as previously described ([24]). Following the 30 min reaction, DPP-IV was heat inactivated by immersing samples in a water bath set at 90°C for 20 min. Test samples were subsequently diluted 40 times in mobile phase A (0.1% FA in MS water). Intact peptides were analyzed at the same concentration as the test samples. The peptide composition of the samples was determined as described previously ([25]). Briefly, an ultra-high performance liquid chromatography (UHPLC) UltiMate 3000 (Dionex, Camberley, Surrey, UK) fitted with a security guard UHPLC C18 PEPTIDE (2.1 mm, Phenomenex, Cheshire, UK) and an Aeris Peptide XB-C18 column (150 mm × 2.1 mm, 1.7 µm, Phenomenex) was used for peptide separation at 25°C. A sample volume of 2 µL was injected with a solvent delay of 4 min. The UHPLC was coupled to a quadrupole time-of-flight mass spectrometer (Q-TOF, Impact HD™, Bruker Daltonics GmbH, Bremen, Germany) using a 50–600 m/z acquisition range. The MS was fitted with an electrospray ionization source used in positive ion mode. Data acquisition was performed with Hystar software (Bruker Daltonics). Data analysis was performed with Compass Data Analysis 4.2 (Bruker Daltonics).

DPP-IV [3] = tested on: DPP-IV; set-up: method as in PMID 1671823; details: after 36 min incubation; ref [47]; cited from earlier work
DPP-IV [4] = details: competitive inhibitory peptides used in QSAR model, cited from earlier work
[5] = cited from earlier work
[6] = molecular target: human dipeptidyl peptidase IV; set-up: method as in PMID 24512990; details: most potent peptide of Trp-Arg-Xaa library; ref [14]; read-out: DPP-IV IC50; cited from earlier work
DPP-IV [7] = details: cited from earlier work

| Compound | inhibition at 500 µM (porcine DPP-IV [1]; peptide at 500 µM) | IC50 (porcine DPP-IV [1]) | Hydrolysis by DPP-IV (stability), in words (porcine DPP-IV [2]) | Peptide hydrolyzed by DPP-IV (porcine DPP-IV [2]) | also measured |
| --- | --- | --- | --- | --- | --- |
| C[C@H](N)C(=O)N1CCC[C@H]1C(=O)N[C@@H](C)C(=O)O [APA, Ala-Pro-Ala] (H-Ala-Pro-Ala-OH; N-terminus and C-terminus assumed) | > 65% | 44.3 ± 3.2 µM | not hydrolyzed by DPP-IV | NO | – |
| C[C@H](N)C(=O)N1CCC[C@H]1C(=O)N[C@@H](CCCNC(=N)N)C(=O)O [APR, Ala-Pro-Arg] (H-Ala-Pro-Arg-OH; N-terminus and C-terminus assumed) | > 65% | 120 ± 3.5 µM | not hydrolyzed by DPP-IV | NO | – |
| CC[C@H](C)[C@H](N)C(=O)N[C@@H](C)C(=O)N[C@H](C(=O)O)[C@@H](C)CC [IAI, Ile-Ala-Ile] (H-Ile-Ala-Ile-OH; N-terminus and C-terminus assumed) | 9.6 ± 1.9% | – | – | – | % DPP-IV inhibition (porcine DPP-IV [1]; peptide at 500 µM, 500 µM): < 10% |
| CC[C@H](C)[C@H](N)C(=O)N[C@@H](CCCNC(=N)N)C(=O)N[C@@H](CCCCN)C(=O)O [IRK, Ile-Arg-Lys] (H-Ile-Arg-Lys-OH; N-terminus and C-terminus assumed) | < 25% | – | – | – | – |
| C[C@H](NC(=O)[C@@H]1CCCN1C(=O)[C@@H](N)CCCCN)C(=O)O [KPA, Lys-Pro-Ala] (H-Lys-Pro-Ala-OH; N-terminus and C-terminus assumed) | > 65% | 74.5 ± 7 µM | not hydrolyzed by DPP-IV | NO | – |
| N=C(N)NCCC[C@H](NC(=O)[C@H](CCCCN)NC(=O)[C@@H](N)CCCNC(=N)N)C(=O)O [RKR, Arg-Lys-Arg] (H-Arg-Lys-Arg-OH; N-terminus and C-terminus assumed) | < 25% | – | – | – | – |
| N[C@@H](Cc1c[nH]c2ccccc12)C(=O)N1CCC[C@H]1C(=O)N[C@@H](Cc1c[nH]c2ccccc12)C(=O)O [WPW, Trp-Pro-Trp] (H-Trp-Pro-Trp-OH; N-terminus and C-terminus assumed) | – | 120 ± 13.1 µM | partly hydrolyzed by DPP-IV | YES | – |
| Glu-Lys [EK] | – | – | – | – | IC50 (DPP-IV [4]; ref [18]): 3220 µM |
| IPIQY | – | – | – | – | IC50 (DPP-IV [4]; ref [21]): 35.2 µM |
| Ile-Pro-Pro | – | – | – | – | Identification in human sera ([5]; following ingestion of a milk beverage enriched in lactotripeptides, ref [39]): identified in human sera |
| LLQLEAIR | – | – | – | – | IC50 (DPP-IV [4]; ref [24]): 178 µM |
| LPLPL | – | – | – | – | IC50 (DPP-IV [4]; ref [21]): 325 µM |
| LPQNIPPLT | – | – | – | – | IC50 (DPP-IV [4]; ref [17]): 205 µM |
| LPVP | – | – | – | – | IC50 (DPP-IV [4]; ref [24]): 87 µM |
| LPVPQ | – | – | – | – | IC50 (DPP-IV [4]; ref [17]): 43.7 µM |
| LPYPY | – | – | – | – | IC50 (DPP-IV [4]; ref [21]): 108 µM |
| MPVQA | – | – | – | – | IC50 (DPP-IV [4]; ref [24]): 93.3 µM |
| Trp-Arg-Glu | – | – | – | – | IC50 [6]: 350 µM |
| VPGEIVE | – | – | – | – | IC50 (DPP-IV [4]; ref [17]): 224 µM |
| Val-Pro-Leu [VPL] | – | – | – | – | times more potent than other food protein-derived peptides (DPP-IV [7]; DPP-IV inhibition, ref [5]): > 2 times; Mode of inhibition (DPP-IV [7]; Table S1, ref (2,3) of supplement): competitive; IC50 (DPP-IV [7]; ref [8]): 15.8 µM |
| Val-Pro-Pro | – | – | – | – | Identification in human sera ([5]; in vivo): identified in human sera |

The next lines start with results.

| inhibition at 500 µM (porcine DPP-IV [1]; peptide at 500 µM) | IC50 (porcine DPP-IV [1]) | Hydrolysis by DPP-IV (stability), in words (porcine DPP-IV [2]) | Peptide hydrolyzed by DPP-IV (porcine DPP-IV [2]) | Compound | also measured |
| --- | --- | --- | --- | --- | --- |
| > 65% | 65.8 ± 5.5 µM | not hydrolyzed by DPP-IV | NO | C[C@H](N)C(=O)N1CCC[C@H]1C(=O)N[C@@H](Cc1ccccc1)C(=O)O [APF, Ala-Pro-Phe] (H-Ala-Pro-Phe-OH; N-terminus and C-terminus assumed) | – |
| 62.9 ± 10.1% | 247 ± 32.7 µM | partly hydrolyzed by DPP-IV | YES | N[C@@H](Cc1ccccc1)C(=O)N1CCC[C@H]1C(=O)N[C@@H](Cc1ccccc1)C(=O)O [FPF, Phe-Pro-Phe] (H-Phe-Pro-Phe-OH; N-terminus and C-terminus assumed) | – |
| – | 54.9 ± 2.9 µM | partly hydrolyzed by DPP-IV | YES | N[C@@H](Cc1ccccc1)C(=O)N1CCC[C@H]1C(=O)N[C@@H](Cc1c[nH]c2ccccc12)C(=O)O [FPW, Phe-Pro-Trp] (H-Phe-Pro-Trp-OH; N-terminus and C-terminus assumed) | – |
| > 65% | 28.3 ± 3.4 µM | not hydrolyzed by DPP-IV | NO | CC[C@H](C)[C@H](N)C(=O)N1CCC[C@H]1C(=O)N[C@@H](C)C(=O)O [IPA, Ile-Pro-Ala] (H-Ile-Pro-Ala-OH; N-terminus and C-terminus assumed) | – |
| – | 47.3 ± 12.3 µM | partly hydrolyzed by DPP-IV | YES | CC[C@H](C)[C@H](N)C(=O)N1CCC[C@H]1C(=O)N[C@@H](Cc1ccccc1)C(=O)O [IPF, Ile-Pro-Phe] (H-Ile-Pro-Phe-OH; N-terminus and C-terminus assumed) | – |
| > 65% | – | – | – | CC[C@H](C)[C@H](N)C(=O)N1CCC[C@H]1C(=O)N[C@H](C(=O)O)[C@@H](C)CC [IPI, Ile-Pro-Ile] | initial amount cleaved by DPP-IV (DPP-IV [3]): 37% |
| – | 175 ± 5.5 µM | partly hydrolyzed by DPP-IV | YES | CC[C@H](C)[C@H](N)C(=O)N1CCC[C@H]1C(=O)N[C@@H](Cc1c[nH]c2ccccc12)C(=O)O [IPW, Ile-Pro-Trp] (H-Ile-Pro-Trp-OH; N-terminus and C-terminus assumed) | – |
| < 25% | – | – | – | CC[C@H](C)[C@H](N)C(=O)N[C@@H](CCCNC(=N)N)C(=O)N[C@@H](Cc1ccccc1)C(=O)O [IRF, Ile-Arg-Phe] (H-Ile-Arg-Phe-OH; N-terminus and C-terminus assumed) | – |
| – | 160 ± 12.8 µM | partly hydrolyzed by DPP-IV | YES | N[C@@H](Cc1c[nH]c2ccccc12)C(=O)N1CCC[C@H]1C(=O)N[C@@H](Cc1ccccc1)C(=O)O [WPF, Trp-Pro-Phe] (H-Trp-Pro-Phe-OH; N-terminus and C-terminus assumed) | – |
